Assay results taken from patent US6479657B1, “Crystalline 1-kestose and process for preparing the same” (Meiji Seika Kaisha, Ltd., priority 1995, dated 2002).

Columns and labels:
[1] = test system: enzyme having fructose transferase activity derived from a Scopulariopsis microorganism; assay: Properties of the novel Scopulariopsis enzyme: substrate specificity, inhibition, kinetics; type: biochemical, Scopulariopsis brevicaulis
Method: In the case of an enzyme derived from a Scopulariopsis microorganism, the quantity of enzyme which can produce 1 μmol of 1-kestose in 1 minute at 40° C., pH 7.0, and a substrate (sucrose) concentration of 10 wt %.
The enzyme is prepared from a Scopulariopsis microorganism, preferably from Scopulariopsis brevicaulis, specifically Scopulariopsis brevicaulis IF04843 strain.
The enzyme can be recovered from a culture by incubating the microorganism in a suitable medium (e.g., a medium containing 3.0 to 10.0% of sucrose, 5 to 15% of corn steep liquor, 0.05 to 0.3% of urea, 0.2 to 3.0 of potassium dihydrogenphosphate, and 0.01 to 0.1% of magnesium sulfate heptahydrate), at initial pH of 6.5 to 7.5 and a temperature of 20 to 30° C. for 3 to 8 days. The enzyme is prepared preferably by recovering the fungus body from the culture using a centrifuge such as a basket type; suspending the recovered fungus body in a buffer at pH 7.0; obtaining a crude enzyme suspension by an ultrasonic treatment and a membrane treatment; then treating with anion exchange, gel filtration, chromatographic focusing, or other procedure on the crude enzyme suspension.
The freeze-dried fungus body powder prepared above was suspended in a McIlvaine buffer (pH 7.0), and ultrasonically crushed. The crushed cells were ultrafiltrated through a membrane filter (cutoff molecular weight: 100,000).

[2] = test system: enzyme having fructose transferase activity derived from a Penicillium microorganism; assay: Properties of the novel Penicillium enzyme: substrate specificity, inhibition, kinetics; type: biochemical, Penicillium roqueforti
Method: In the case of an enzyme derived from a Penicillium microorganism, the quantity of enzyme which can produce 1 μmol of 1-kestose in 1 minute at 50° C., pH 7.0, and a substrate (sucrose) concentration of 10 wt %; and The enzyme is prepared from a Penicillium microorganism, preferably from Penicillium roqueforti, specifically Penicillium roqueforti IAM7254 strain. The enzyme can be recovered from a culture by incubating the microorganism in a suitable medium (e.g., a medium containing 5 to 30% of sucrose, 1 to 10% of corn steep liquor, 0.05 to 0.3% of urea, 0.2 to 3.0 of potassium dihydrogenphosphate, and 0.01 to 0.1% of magnesium sulfate heptahydrate), at initial pH of 6.5 to 7.5 and a temperature of 25 to 30° C. for 2 to 5 days.

[3] = Decomposition of 1-kestose in the decolorizing and desalting procedure; type: physicochemical; details: activated carbon at 60° C. for 20 minutes, cation and anion exchange resin
Method: The deactivated solution was filtered to remove any impurities such as the fungus body and the activated carbon. Then, activated carbon (Taiko activated carbon S-W50) was added to the filtrate at a rate of 0.5% of the solids content, and stirred at a temperature of 60° C. for 20 minutes to decolorize again. After filtrating to remove the activated carbon in the same manner as above, the solution was desalted through cation and anion exchange resin, then filtrated again to make a colorless and transparent 1-kestose solution (chromatographic sample).
The deactivated solution was filtered to remove any impurities such as the fungus body and the activated carbon. Then, activated carbon (Taiko activated carbon S-W50) was added to the filtrate at a rate of 0.5% per solids content, and stirred at a temperature of 60° C. for 20 minutes to decolorize again. After filtrating to remove the activated carbon in the same manner as above, the solution was desalted through cation and anion exchange resin, then filtrated again to make a colorless and transparent 1-kestose solution (chromatographic sample).
The deactivated solution was filtered to remove any impurities such as the fungus body and the activated carbon. […]

OC[C@H]1O[C@H](O[C@H]2[C@H](O)[C@@H](O)C(O)O[C@@H]2CO)[C@H](O)[C@@H](O)[C@@H]1O (mixture of isomers) [maltose]
Substrate specificity (enzyme acts on sugar) [1]: not on | Substrate specificity (enzyme acts on sugar) [2]: not on

OC[C@H]1O[C@@](CO)(OC[C@@]2(O[C@H]3O[C@H](CO)[C@@H](O)[C@H](O)[C@H]3O)O[C@H](CO)[C@@H](O)[C@@H]2O)[C@@H](O)[C@@H]1O [Example 1-kestose, 1-kestose]
Substrate specificity (enzyme acts on sugar) [1]: effectively acts on | Substrate specificity (enzyme acts on sugar) [2]: effectively acts on | decomposition of 1-kestose [3]: hardly observed

OC[C@H]1O[C@H](OC[C@H]2O[C@H](O[C@]3(CO)O[C@H](CO)[C@@H](O)[C@@H]3O)[C@H](O)[C@@H](O)[C@@H]2O)[C@H](O)[C@@H](O)[C@H]1O [raffinose]
Substrate specificity (enzyme acts on sugar) [1]: effectively acts on | Substrate specificity (enzyme acts on sugar) [2]: effectively acts on

OC[C@H]1O[C@@](CO)(O[C@H]2O[C@H](CO)[C@@H](O)[C@H](O)[C@H]2O)[C@@H](O)[C@@H]1O [sucrose]
Substrate specificity (enzyme acts on sugar) [1]: effectively acts on | Substrate specificity (enzyme acts on sugar) [2]: effectively acts on

O=C(CO)[C@@H](O[C@H]1O[C@H](CO)[C@@H](O)[C@H](O)[C@H]1O)[C@H](O)[C@H](O)CO [turanose]
Substrate specificity (enzyme acts on sugar) [1]: not on | Substrate specificity (enzyme acts on sugar) [2]: not on
